Experiments:
[1] = biological target: T1, ABL1 (64-515) (Homo sapiens (Human), UniProt P00519); assay: Caliper ABL1 (64-515) assay (microfluidic mobility shift); format: biochemical
[2] = biological target: T1, ABL1 (64-515); assay: Radio ABL1 (64-515) assay (radiometric filter-binding); format: biochemical

T1 sequence (P00519 64-515): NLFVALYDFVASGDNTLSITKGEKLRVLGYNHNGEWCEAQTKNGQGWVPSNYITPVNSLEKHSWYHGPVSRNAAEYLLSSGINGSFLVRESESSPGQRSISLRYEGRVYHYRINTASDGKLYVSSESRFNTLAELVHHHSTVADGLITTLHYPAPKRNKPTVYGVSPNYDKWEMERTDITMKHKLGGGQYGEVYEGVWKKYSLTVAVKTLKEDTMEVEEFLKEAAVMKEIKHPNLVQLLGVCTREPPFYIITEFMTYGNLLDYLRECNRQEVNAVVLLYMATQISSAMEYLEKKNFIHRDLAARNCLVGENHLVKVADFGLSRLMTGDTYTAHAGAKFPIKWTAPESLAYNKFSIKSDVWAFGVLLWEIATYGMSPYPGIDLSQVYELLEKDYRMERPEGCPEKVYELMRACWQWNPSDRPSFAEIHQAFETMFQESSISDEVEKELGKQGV

| IC50 [2] | SMILES | also measured |
| --- | --- | --- |
|  | Cc1ccc(F)cc1-c1cc(C(=O)Nc2ccc(OC(F)(F)Cl)cc2)cnc1N1CC[C@@H](O)C1 [Example 294, (R)—N-(4-(Chlorodifluoromethoxy)phenyl)-5-(5-fluoro-2-methylphenyl)-6-(3-hydroxypyrrolidin-1-yl)nicotinamide] | IC50 [1]: 3 nM |
|  | N#Cc1ccc(F)c(-c2cc(C(=O)Nc3ccc(OC(F)(F)Cl)cc3)cnc2N2CC[C@@H](O)C2)c1 [Example 295, (R)—N-(4-(Chlorodifluoromethoxy)phenyl)-5-(5-cyano-2-fluorophenyl)-6-(3-hydroxypyrrolidin-1-yl)nicotinamide] | IC50 [1]: 0.7 nM |
|  | NC12CC1CN(c1ncc(C(=O)Nc3ccc(OC(F)(F)F)cc3)cc1-c1cncnc1)C2 (stereo not shown) [Example 226, 6-(1-Amino-3-azabicyclo[3.1.0]hexan-3-yl)-5-(pyrimidin-5-yl)-N-(4-(trifluoromethoxy)phenyl)nicotinamide] | IC50 [1]: 1.9 nM |
|  | N#Cc1ccc(F)cc1-c1cc(C(=O)Nc2ccc(OC(F)(F)Cl)cc2)cnc1N1CC[C@@H](O)C1 [Example 287, (R)—N-(4-(Chlorodifluoromethoxy)phenyl)-5-(2-cyano-5-fluorophenyl)-6-(3-hydroxypyrrolidin-1-yl)nicotinamide] | IC50 [1]: 1.5 nM |
|  | O=C(Nc1ccc(OC(F)(F)Cl)cc1)c1cnc(N2CC[C@@H](O)C2)c(-c2cc(F)cnc2Cl)c1 [Example 288, (R)-2′-Chloro-N-(4-(chlorodifluoromethoxy)phenyl)-5′-fluoro-2-(3-hydroxypyrrolidin-1-yl)-[3,3′-bipyridine]-5-carboxamide] | IC50 [1]: 1 nM |
|  | N#Cc1cc(F)cc(-c2cc(C(=O)Nc3ccc(OC(F)(F)Cl)cc3)cnc2N2CC[C@@H](O)C2)c1 [Example 293, (R)—N-(4-(Chlorodifluoromethoxy)phenyl)-5-(3-cyano-5-fluorophenyl)-6-(3-hydroxypyrrolidin-1-yl)nicotinamide] | IC50 [1]: 0.7 nM |
|  | Cc1ccncc1-c1cc(C(=O)Nc2ccc(OC(F)(F)Cl)cc2)cnc1N1CC[C@@H](O)C1 [Example 291, (R)—N-(4-(Chlorodifluoromethoxy)phenyl)-2-(3-hydroxypyrrolidin-1-yl)-4′-methyl-[3,3′-bipyridine]-5-carboxamide] | IC50 [1]: 0.2 nM |
|  | O=C(Nc1c(Cl)cc(OC(F)(F)F)cc1Cl)c1cnc(N2CC[C@@H](O)C2)c(-c2cncnc2)c1 | IC50 ([1]; comparison of ortho substitution on the R3/R4 ring): > 10000 nM |
|  | O=C(Nc1ccc(OC(F)(F)F)cc1)c1cnc(N2CC3CN(CCO)CC3C2)c(-c2cncnc2)c1 (stereo not shown) [Example 281, 6-(5-(2-Hydroxyethyl)hexahydropyrrolo[3,4-c]pyrrol-2(1H)-yl)-5-(pyrimidin-5-yl)-N-(4-(trifluoromethoxy)phenyl)nicotinamide] | IC50 [1]: 11 nM |
| 4 nM | O=C(Nc1ccc(OC(F)(F)F)cc1)c1cnc(N2CCCNCC2)c(-c2cccnc2)c1 [Example 145, 2-(1,4-Diazepan-1-yl)-N-(4-(trifluoromethoxy)phenyl)-[3,3′-bipyridine]-5-carboxamide] |  |
|  | Cc1ccc(F)cc1-c1cc(C(=O)Nc2ccc(OC(F)(F)Cl)cc2)cnc1N1C[C@H](O)[C@@H](O)C1 [Example 296, N-(4-(Chlorodifluoromethoxy)phenyl)-6-((3S,4S)-3,4-dihydroxypyrrolidin-1-yl)-5-(5-fluoro-2-methylphenyl)nicotinamide] | IC50 [1]: 1 nM |
| < 3 nM | N[C@@H]1CCN(c2ncc(C(=O)Nc3ccc(OC(F)(F)F)cc3)cc2-c2cccnc2)C1 [Example 94, (R)-2-(3-Aminopyrrolidin-1-yl)-N-(4-(trifluoromethoxy)phenyl)-[3,3′-bipyridine]-5-carboxamide] |  |
| 3 nM | COc1ncc(-c2cc(C(=O)Nc3ccc(OC(F)(F)F)cc3)cnc2N2CC[C@@H](O)C2)cn1 [Example 37, (R)-6-(3-Hydroxypyrrolidin-1-yl)-5-(2-methoxypyrimidin-5-yl)-N-(4-(trifluoromethoxy)phenyl)nicotinamide] |  |
| 6 nM | CC(C)(O)C1CCN(c2ncc(C(=O)Nc3ccc(OC(F)(F)F)cc3)cc2-c2cccnc2)C1 (stereo not shown) [Example 114, 2-(3-(2-Hydroxypropan-2-yl)pyrrolidin-1-yl)-N-(4-(trifluoromethoxy)phenyl)-[3,3′-bipyridine]-5-carboxamide] |  |
| < 3 nM | CN(C)CCCN(C)c1ncc(C(=O)Nc2ccc(OC(F)(F)F)cc2)cc1-c1cccnc1 [Example 168, 2-((3-(Dimethylamino)propyl)(methyl)amino)-N-(4-(trifluoromethoxy)phenyl)-[3,3′-bipyridine]-5-carboxamide] |  |
| < 3 nM | CN(CCCO)c1ncc(C(=O)Nc2ccc(OC(F)(F)F)cc2)cc1-c1cncnc1 [Example 165, 6-((3-Hydroxypropyl)(methyl)amino)-5-(pyrimidin-5-yl)-N-(4-(trifluoromethoxy)phenyl)nicotinamide] |  |
| < 3 nM | Cc1cncc(-c2cc(C(=O)Nc3ccc(OC(F)(F)F)cc3)cnc2N2CC[C@@H](O)C2)c1 [Example 44, (R)-2-(3-Hydroxypyrrolidin-1-yl)-5′-methyl-N-(4-(trifluoromethoxy)phenyl)-[3,3′-bipyridine]-5-carboxamide] |  |
| < 3 nM | CN[C@@H]1CCN(c2ncc(C(=O)Nc3ccc(OC(F)(F)F)cc3)cc2-c2cncnc2)C1 [Example 99, (R)-6-(3-(Methylamino)pyrrolidin-1-yl)-5-(pyrimidin-5-yl)-N-(4-(trifluoromethoxy)phenyl)nicotinamide] |  |
| < 3 nM | O=C(Nc1ccc(OC(F)(F)F)cc1)c1cnc(N2Cc3ccncc3C2)c(-c2cncnc2)c1 [Example 18] |  |

| IC50 [2] | SMILES | also measured |
| --- | --- | --- |
| < 3 nM | Cc1ccc(-c2cc(C(=O)Nc3ccc(OC(F)(F)F)cc3)ccc2N2CC[C@@H](O)C2)cn1 [Example 6, (R)-4-(3-Hydroxypyrrolidin-1-yl)-3-(6-methylpyridin-3-yl)-N-(4-(trifluoromethoxy)phenyl)benzamide] |  |
| < 3 nM | O=C(Nc1ccc(OC(F)(F)F)cc1)c1cnc(N2CCCC(CO)C2)c(-c2cncnc2)c1 (stereo not shown) [Example 19] |  |
| < 3 nM | CN[C@@H]1CCN(c2ncc(C(=O)Nc3ccc(OC(F)(F)F)cc3)cc2-c2cccnc2)C1 [Example 100, (R)-2-(3-(Methylamino)pyrrolidin-1-yl)-N-(4-(trifluoromethoxy)phenyl)-[3,3′-bipyridine]-5-carboxamide] |  |
| < 3 nM | CN(c1ncc(C(=O)Nc2ccc(OC(F)(F)F)cc2)cc1-c1cncnc1)C1CCOCC1 [Example 27] |  |
| 5 nM | N#Cc1ncc(-c2cc(C(=O)Nc3ccc(OC(F)(F)F)cc3)cnc2N2CC[C@H](CO)C2)cn1 [Example 80, (S)-5-(2-Cyanopyrimidin-5-yl)-6-(3-(hydroxymethyl)pyrrolidin-1-yl)-N-(4-(trifluoromethoxy)phenyl)nicotinamide] |  |
| < 3 nM | NC[C@@H]1CCN(c2ncc(C(=O)Nc3ccc(OC(F)(F)F)cc3)cc2-c2cccnc2)C1 [Example 109, (S)-2-(3-(Aminomethyl)pyrrolidin-1-yl)-N-(4-(trifluoromethoxy)phenyl)-[3,3′-bipyridine]-5-carboxamide] |  |
| 3 nM | CN[C@H]1CCN(c2ncc(C(=O)Nc3ccc(OC(F)(F)F)cc3)cc2-c2ccc(C)nc2)C1 [Example 104, (S)-6′-Methyl-2-(3-(methylamino)pyrrolidin-1-yl)-N-(4-(trifluoromethoxy)phenyl)-[3,3′-bipyridine]-5-carboxamide] |  |
| 13 nM | NC(=O)C1CCN(c2ncc(C(=O)Nc3ccc(OC(F)(F)F)cc3)cc2-c2cncnc2)CC1 [Example 21] |  |
| 4 nM | O=C(Nc1ccc(OC(F)(F)F)cc1)c1cnc(N2CC[C@@H](O)C2)c(-c2ccc3ccncc3c2)c1 [Example 63, (R)-6-(3-Hydroxypyrrolidin-1-yl)-5-(isoquinolin-7-yl)-N-(4-(trifluoromethoxy)phenyl)nicotinamide] |  |
| 26 nM | O=C(Nc1ccc(OC(F)(F)F)cc1)c1cnc(N2CC[C@H](CO)C2)c(-c2ccc(C3CC3)nc2)c1 [Example 85, (S)-6′-Cyclopropyl-2-(3-(hydroxymethyl)pyrrolidin-1-yl)-N-(4-(trifluoromethoxy)phenyl)-[3,3′-bipyridine]-5-carboxamide] |  |
| 4 nM | COc1ccc(-c2cc(C(=O)Nc3ccc(OC(F)(F)F)cc3)cnc2N2CC[C@@H](O)C2)cn1 [Example 56, (R)-2-(3-hydroxypyrrolidin-1-yl)-6′-methoxy-N-(4-(trifluoromethoxy)phenyl)-[3,3′-bipyridine]-5-carboxamide] |  |
| 6 nM | O=C(Nc1ccc(OC(F)(F)F)cc1)c1cnc(N2CC(CO)C2)c(-c2cnc(Cl)c(F)c2)c1 [Example 141, 6′-Chloro-5′-fluoro-2-(3-(hydroxymethyl)azetidin-1-yl)-N-(4-(trifluoromethoxy)phenyl)-[3,3′-bipyridine]-5-carboxamide] |  |
| < 3 nM | Cc1ncc(-c2cc(C(=O)Nc3ccc(OC(F)(F)F)cc3)cnc2N2CC(CO)C2)cn1 [Example 136, 6-(3-(Hydroxymethyl)azetidin-1-yl)-5-(2-methylpyrimidin-5-yl)-N-(4-(trifluoromethoxy)phenyl)nicotinamide] |  |
| < 3 nM | Cc1ccc(-c2cc(C(=O)Nc3ccc(OC(F)(F)F)cc3)cnc2N2CC[C@H](CN)C2)cn1 [Example 107, (R)-2-(3-(Aminomethyl)pyrrolidin-1-yl)-6′-methyl-N-(4-(trifluoromethoxy)phenyl)-[3,3′-bipyridine]-5-carboxamide] |  |
| < 3 nM | Cc1ccc(-c2cc(C(=O)Nc3ccc(OC(F)(F)F)cc3)cnc2NCCCO)cn1 [Example 163, 2-((3-Hydroxypropyl)amino)-6′-methyl-N-(4-(trifluoromethoxy)phenyl)-[3,3′-bipyridine]-5-carboxamide] |  |
| 12 nM | COc1ccc(-c2cc(C(=O)Nc3ccc(OC(F)(F)F)cc3)cnc2NCCCO)cn1 [Example 164, 2-((3-Hydroxypropyl)amino)-6′-methoxy-N-(4-(trifluoromethoxy)phenyl)-[3,3′-bipyridine]-5-carboxamide] |  |
| 16 nM | Cc1ccc(-c2cc(C(=O)Nc3ccc(OC(F)(F)F)cc3)cnc2N2CCC(C(C)(C)O)C2)cn1 (stereo not shown) [Example 115, 2-(3-(2-Hydroxypropan-2-yl)pyrrolidin-1-yl)-6′-methyl-N-(4-(trifluoromethoxy)phenyl)-[3,3′-bipyridine]-5-carboxamide] |  |
| < 3 nM | O=C(Nc1ccc(OC(F)(F)F)cc1)c1cnc(N2CCC3(CCNC3=O)C2)c(-c2cncnc2)c1 (stereo not shown) [Example 17] |  |

Source: US9278981B2, “Compounds and compositions for inhibiting the activity of ABL1, ABL2 and BCR-ABL1” (Novartis AG, priority 2012, dated 2016)
